Measured values taken from patent US11345666B2, “Phenyl and pyridinyl substituted imidazoles as modulators of RORγT” (Janssen Pharmaceutica NV, priority 2018, dated 2022).
Where two headings read alike, the source gives them in different places.

Experiments:
[1] = target: human RORγt ligand binding domain (RORγt LBD) (Homo sapiens (Human), UniProt P51449); assay: RORγt ThermoFluor assay
Procedure, shortened: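 Thermal shift of His-tagged human RORγt LBD (0.065 mg/mL) with 60 μM 1,8-ANS in 100 mM Hepes pH 7.0, 10 mM NaCl, 2.5 mM GSH, 0.002% Tween-20, heated at 1° C./min. Compounds in 1:2 series from a 10 mM DMSO stock; KD estimated from ΔTm using protein unfolding thermodynamics.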

full-length human RORγt = full-length human RORγt (Homo sapiens (Human), UniProt P51449); assay: RORγt (full-length human) reporter assay, conditions A or B; assay type: cell-based; conditions: for inhibition at 2 µM: 2 μM compound concentration (**); for IC50: HEK293T cells, read-out: RORγt (FL) Reporter Assay A or B, IC50; for inhibition at 6 µM: read-out: RORγt (FL) Reporter Assay A or B, % inhibition @ 6 μM, 6 μM compound concentration; for inhibition at 0.67 µM: 0.67 μM compound concentration (****); for inhibition at 0.22 µM: 0.22 μM compound concentration (******)
Procedure, shortened: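 HEK293T cells transiently co-transfected (PEI) with GAL4-DBD–RORγt, GAL4-firefly luciferase and CMV-Renilla reporters; condition A 35,000 cells/well, 170.5 ng DNA/well; condition B 8750 cells/well, 42.6 ng DNA/well.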

[2] = read-out: RORγt (FL) Reporter Assay A or B, % inhibition
[3] = 3 μM compound concentration (*), read-out: RORγt (FL) Reporter Assay A or B, % inhibition

human RORγt ligand binding domain (RORγt LBD), sequence (P51449 other isoform, or with tags, fused parts or gaps): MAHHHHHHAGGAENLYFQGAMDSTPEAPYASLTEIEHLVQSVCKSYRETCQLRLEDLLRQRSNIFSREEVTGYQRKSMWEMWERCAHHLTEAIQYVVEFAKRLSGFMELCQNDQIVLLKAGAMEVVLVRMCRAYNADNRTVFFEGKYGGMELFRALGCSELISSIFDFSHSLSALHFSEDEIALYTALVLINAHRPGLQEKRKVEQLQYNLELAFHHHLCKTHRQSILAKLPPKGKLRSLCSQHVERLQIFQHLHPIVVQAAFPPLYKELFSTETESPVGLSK
full-length human RORγt, sequence (P51449 other isoform, or with tags, fused parts or gaps): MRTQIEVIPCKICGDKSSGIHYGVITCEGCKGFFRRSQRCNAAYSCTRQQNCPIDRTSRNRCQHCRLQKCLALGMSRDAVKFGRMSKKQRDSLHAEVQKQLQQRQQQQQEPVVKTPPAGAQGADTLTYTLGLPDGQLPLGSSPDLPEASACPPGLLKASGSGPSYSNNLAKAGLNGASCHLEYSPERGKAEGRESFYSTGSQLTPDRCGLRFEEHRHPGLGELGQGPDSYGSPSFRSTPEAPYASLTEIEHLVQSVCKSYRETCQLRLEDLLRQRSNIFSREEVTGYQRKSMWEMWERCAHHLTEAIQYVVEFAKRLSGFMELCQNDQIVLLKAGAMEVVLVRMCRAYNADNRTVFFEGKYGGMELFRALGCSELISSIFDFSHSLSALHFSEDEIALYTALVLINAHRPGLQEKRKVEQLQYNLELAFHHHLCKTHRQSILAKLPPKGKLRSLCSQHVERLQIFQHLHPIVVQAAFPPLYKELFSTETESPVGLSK

| Structure (SMILES) | Kd [1] [µM] | inhibition at 2 µM (full-length human RORγt; [2]) [%] | IC50 (full-length human RORγt) [µM] | inhibition at 6 µM (full-length human RORγt) [%] | inhibition at 0.67 µM (full-length human RORγt; [2]) [%] | inhibition at 3 µM (full-length human RORγt; read-out: RORγt (FL) Reporter Assay A or B, % inhibition, 3 μM compound concentration (*)) [%] | inhibition at 3 µM (full-length human RORγt; [3]) [%] | inhibition at 0.22 µM (full-length human RORγt; [2]) [%] |
| --- | --- | --- | --- | --- | --- | --- | --- | --- |
| CCc1nc(C(=O)NC[C@]2(O)CC[C@@H](S(C)(=O)=O)CC2)c(Cl)n1-c1ccc(CCCC(F)(F)F)cc1F [Example 98, 5-Chloro-2-ethyl-1-(2-fluoro-4-(4,4,4-trifluorobutyl)phenyl)-N-(((1s,4s)-1-hydroxy-4-(methylsulfonyl)cyclohexyl)methyl)-1H-imidazole-4-carboxamide] | 0.033 | 43 | 0.033 |  |  |  |  |  |
| CCc1nc(C(=O)NC[C@H]2CC[C@H](S(C)(=O)=O)CC2)c(C#N)n1-c1ccc(CCC(F)(F)F)cc1OC(F)F [Example 26, 5-Cyano-1-(2-(difluoromethoxy)-4-(3,3,3-trifluoropropyl)phenyl)-2-ethyl-N-(((1r,4r)-4-(methylsulfonyl)cyclohexyl)methyl)-1H-imidazole-4-carboxamide] | 0.024 |  | 0.054 | 96 |  |  |  |  |
| CCc1nc(C(=O)NC[C@H]2CC[C@H](S(C)(=O)=O)CC2)c(Cl)n1-c1ccc(CCCC(F)(F)F)cc1F [Example 97, 5-Chloro-2-ethyl-1-(2-fluoro-4-(4,4,4-trifluorobutyl)phenyl)-N-(((1r,4r)-4-(methylsulfonyl)cyclohexyl)methyl)-1H-imidazole-4-carboxamide] | 0.014 |  | 0.022 |  | 53 |  |  |  |
| CCc1nc(C(=O)NC[C@]2(O)CC[C@@H](S(C)(=O)=O)CC2)c(F)n1-c1ccc(CCC(F)(F)F)cc1OC [Example 14, 2-Ethyl-5-fluoro-N-(((1s,4s)-1-hydroxy-4-(methylsulfonyl)cyclohexyl)methyl)-1-(2-methoxy-4-(3,3,3-trifluoropropyl)phenyl)-1H-imidazole-4-carboxamide] | 0.083 |  | 0.32 | 83 |  |  |  |  |
| CCc1nc(C(=O)NC[C@]2(O)CC[C@@H](S(C)(=O)=O)CC2)c(Cl)n1-c1ccc(CCC(F)(F)F)cc1F [Example 23, 5-Chloro-2-ethyl-1-(2-fluoro-4-(3,3,3-trifluoropropyl)phenyl)-N-(((1s,4s)-1-hydroxy-4-(methylsulfonyl)cyclohexyl)methyl)-1H-imidazole-4-carboxamide] | 0.049 |  | 0.037 | 41 |  |  |  |  |
| CCc1nc(C(=O)NC[C@H]2CC[C@H](S(C)(=O)=O)C[C@@H]2O)c(Cl)n1-c1ncc(CC(C)(C)C(F)(F)F)cc1OC(F)F (single isomer, unassigned) [Example 58, 5-Chloro-1-(3-(difluoromethoxy)-5-(3,3,3-trifluoro-2,2-dimethylpropyl)pyridin-2-yl)-2-ethyl-N-(((1R*,2S*,4S*)-2-hydroxy-4-(methylsulfonyl)cyclohexyl)methyl)-1H-imidazole-4-carboxamide] | 0.012 |  | 0.16 |  |  | 121 |  |  |
| CCc1nc(C(=O)NC[C@]2(O)CC[C@@H](S(C)(=O)=O)CC2)cn1-c1ccc(C[C@@H](C)C(F)(F)F)cc1OC (single isomer, unassigned) [Example 17, 2-Ethyl-N-(((1s,4S)-1-hydroxy-4-(methylsulfonyl)cyclohexyl)methyl)-1-(2-methoxy-4-((R*)-3,3,3-trifluoro-2-methylpropyl)phenyl)-1H-imidazole-4-carboxamide] | 0.075 | 74 | 0.4 |  |  |  |  |  |
| CCc1nc(C(=O)NC[C@]2(O)CC[C@@H](S(C)(=O)=O)CC2)c(C#N)n1-c1ccc(CC(C)C(F)(F)F)cc1OC (stereo partly drawn) [Example 1, 5-Cyano-2-ethyl-N-(((1s,4s)-1-hydroxy-4-(methylsulfonyl)cyclohexyl)methyl)-1-(2-methoxy-4-(3,3,3-trifluoro-2-methylpropyl)phenyl)-1H-imidazole-4-carboxamide] | 0.0046 | 103 | 0.04 |  |  |  |  |  |
| [2H]C([2H])([2H])Oc1cc(CC(C)(C)C(F)(F)F)ccc1-n1c(CC)nc(C(=O)NC[C@H]2CC[C@H](S(C)(=O)=O)CC2)c1F [Example 33, 2-Ethyl-5-fluoro-1-(2-(methoxy-d3)-4-(3,3,3-trifluoro-2,2-dimethylpropyl)phenyl)-N-(((1r,4r)-4-(methylsulfonyl)cyclohexyl)methyl)-1H-imidazole-4-carboxamide] | 0.0048 |  | 0.015 |  | 94 |  |  |  |
| CCc1nc(C(=O)NC[C@H]2CC[C@H](S(C)(=O)=O)CC2)c(C(N)=O)n1-c1ccc(CCC(F)(F)F)cc1F [Example 94, 2-Ethyl-1-(2-fluoro-4-(3,3,3-trifluoropropyl)phenyl)-N^4-(((1r,4r)-4-(methylsulfonyl)cyclohexyl)methyl)-1H-imidazole-4,5-dicarboxamide] | 0.25 | 47 | 0.49 |  |  |  |  |  |
| CCc1nc(C(=O)NC[C@]2(O)CC[C@@H](S(C)(=O)=O)CC2)c(Cl)n1-c1ccc(CC(C)(C)C(F)(F)F)cc1F [Example 102, 5-Chloro-2-ethyl-1-(2-fluoro-4-(3,3,3-trifluoro-2,2-dimethylpropyl)phenyl)-N-(((1s,4s)-1-hydroxy-4-(methylsulfonyl)cyclohexyl)methyl)-1H-imidazole-4-carboxamide] | 0.008 |  | 0.036 |  | 74 |  |  |  |
| CCc1nc(C(=O)NC[C@H]2CC[C@H](S(C)(=O)=O)C[C@@H]2O)c(Cl)n1-c1ncc(CC(C(F)(F)F)C(F)(F)F)cc1OC(F)F (stereo in doubt) [Example 64, 5-Chloro-1-(3-(difluoromethoxy)-5-(3,3,3-trifluoro-2-(trifluoromethyl)propyl)pyridin-2-yl)-2-ethyl-N-(((1R*,2S*,4S*)-2-hydroxy-4-(methylsulfonyl)cyclohexyl)methyl)-H-imidazole-4-carboxamide] | 0.035 |  | 0.21 |  |  |  | 101 |  |
| CCc1nc(C(=O)NC[C@H]2CC[C@H](S(C)(=O)=O)CC2)c(Cl)n1-c1ccc(CC(C(F)(F)F)C(F)(F)F)cc1F [Example 99, 5-Chloro-2-ethyl-1-(2-fluoro-4-(3,3,3-trifluoro-2-(trifluoromethyl)propyl)phenyl)-N-(((1r,4r)-4-(methylsulfonyl)cyclohexyl)methyl)-1H-imidazole-4-carboxamide] | 0.004 |  | 0.016 |  |  |  |  | 99 |
| CCc1nc(C(=O)NC[C@H]2CC[C@H](S(C)(=O)=O)CC2)cn1-c1ccc(C[C@@H](C)C(F)(F)F)cc1OC (single isomer, unassigned) [Example 18, 2-Ethyl-1-(2-methoxy-4-((R*)-3,3,3-trifluoro-2-methylpropyl)phenyl)-N-(((1r,4R)-4-(methylsulfonyl)cyclohexyl)methyl)-1H-imidazole-4-carboxamide] | 0.028 | 93 | 0.23 |  |  |  |  |  |
| C#Cc1c(C(=O)NC[C@H]2CC[C@H](S(C)(=O)=O)CC2)nc(CC)n1-c1ccc(CC(C)(C)C(F)(F)F)cc1OC(F)F [Example 41, 1-(2-(Difluoromethoxy)-4-(3,3,3-trifluoro-2,2-dimethylpropyl)phenyl)-2-ethyl-5-ethynyl-N-(((1r,4r)-4-(methylsulfonyl)cyclohexyl)methyl)-1H-imidazole-4-carboxamide] | 0.00019 |  | 0.0027 |  | 106 |  |  |  |
| CCc1nc(C(=O)NC[C@]2(O)CC[C@@H](S(C)(=O)=O)CC2)c(C(N)=O)n1-c1ccc(CC(C)(C)C(F)(F)F)cc1OC(F)(F)F [Example 112, 2-Ethyl-N^4-(((1s,4s)-1-hydroxy-4-(methylsulfonyl)cyclohexyl)methyl)-1-(4-(3,3,3-trifluoro-2,2-dimethylpropyl)-2-(trifluoromethoxy)phenyl)-1H-imidazole-4,5-dicarboxamide] | 0.0019 | 89 | 0.017 |  |  |  |  |  |
| CCc1nc(C(=O)NC[C@]2(O)CC[C@@H](S(C)(=O)=O)CC2)c(C#N)n1-c1ccc(CCC(F)(F)F)cc1OC(F)F [Example 25, 5-Cyano-1-(2-(difluoromethoxy)-4-(3,3,3-trifluoropropyl)phenyl)-2-ethyl-N-(((1s,4s)-1-hydroxy-4-(methylsulfonyl)cyclohexyl)methyl)-1H-imidazole-4-carboxamide] | 0.084 |  | 0.37 | 101 |  |  |  |  |
| CCc1nc(C(=O)NC[C@H]2CC[C@H](S(C)(=O)=O)CC2)c(C)n1-c1ncc(CC(C(F)(F)F)C(F)(F)F)cc1OC(F)F [Example 77, 1-(3-(Difluoromethoxy)-5-(3,3,3-trifluoro-2-(trifluoromethyl)propyl)pyridin-2-yl)-2-ethyl-5-methyl-N-(((1r,4r)-4-(methylsulfonyl)cyclohexyl)methyl)-1H-imidazole-4-carboxamide] | 0.02 |  | 0.077 |  |  |  | 101 |  |
| CCc1nc(C(=O)NC[C@H]2CC[C@H](S(C)(=O)=O)CC2)c(C)n1-c1ccc(CC(C)(C)C(F)(F)F)c(OC)c1 [Example 44, 2-Ethyl-1-(3-methoxy-4-(3,3,3-trifluoro-2,2-dimethylpropyl)phenyl)-5-methyl-N-(((1r,4r)-4-(methylsulfonyl)cyclohexyl)methyl)-1H-imidazole-4-carboxamide] | 0.0041 |  | 0.031 |  |  |  |  | 75 |
